pEC50, pIC50: −log10 of the molar value.
Legend:
NHACs = test: calcium flux assay; format: cell-based, human; settings: Homo sapiens; for Emax: read-out: (A) % Efficacy
In short: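 Normal human articular chondrocytes plated at 2000 cells/well and loaded 24 h later with Calcium 5 dye in HBSS/HEPES with 5 mM probenecid for 1 h at room temperature. Test compound added at indicated dose; fluorescence (ex 470–495/em 515–575 nm) recorded on FLIPR before and after addition.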

C3H10T1/2 cell line = test: alkaline phosphatase assay in C3H10T1/2; format: cell-based; settings: Mus musculus, C3H 10T1/2, 144 h, alkaline phosphatase assay in C3H10T1/2, 6 days; for Emax: read-out: (D) % Efficacy; for pIC50: read-out: (D) IC50
Protocol: To initiate differentiation in C3H10T1/2, Clone 8 (ATCC cat #CCL-226), 4,000 cells were plated/well in 384 Perkin Elmer CellCarrier Ultra plate in DMEM/High glucose (HyClone cat #SH30022.01) containing 10% FBS and 1× Antibiotic/Antimycotic (HyClone cat #SV30079.01). After 24 hours the test compound was then added to each well at the indicated dose. The cultures were grown at 37° C. for 6 days.
To detect the presence of hypertrophic cells, C3H10T1/2 were fixed with 4% paraformaldehyde and Hoeschst dye for 20 minutes, rinsed in PBS, then stained with Fast Blue RR Salt with Naphthol AS-MX Phosphate Alkaline Solution.
The ALP staining was imaged by fluoresecent microscopy, using the 561 wavelength, and/or quantified by high content imagining with the ImageXpress Micro Confocal (Molecular Devices, Sunnyvale, CA). Data analyses were performed with the customized multiwavelength cell-scoring application looking at the number of ALP positive cells per well.

pEC50 (NHACs)	pIC50 (C3H10T1/2 cell line)	Structure (SMILES)	Emax (NHACs) [%]	Emax (C3H10T1/2 cell line) [%]
< 4.30	< 4.70	O=C(Nc1ccc(Cl)c(Cl)c1)[C@@H]1[C@H](c2ccnc(C(F)(F)F)c2)[C@@H]2O[C@H]1C[C@H]2O (single isomer, unassigned) [Example 54b]	16	46
4.59	5.11	COc1cc([C@@H]2[C@@H]3O[C@@H](C[C@H]3O)[C@H]2C(=O)Nc2ccc(Cl)c(Cl)c2)ccn1 (single isomer, unassigned) [Example 139b]	141	82
5.25	< 4.70	O=C(Nc1ccc(Cl)c(Cl)c1)[C@@H]1[C@H]2O[C@H]([C@@H]3C[C@@H]32)[C@H]1c1cncnc1 (single isomer, unassigned) [Example 126b]	103	42
< 4.30	< 4.70	O=C(Nc1cnc(Cl)c(Cl)c1)[C@H]1[C@H](c2ccnc(F)c2)[C@@H]2O[C@H]1C[C@H]2O (single isomer, unassigned) [Example 90b]	44	45
4.89	5.41	Cc1cc([C@@H]2[C@@H]3O[C@@H](C[C@H]3O)[C@H]2C(=O)Nc2ccc(Cl)c(Cl)c2)ccn1 [Example 77c, (1S,2S,3R,4S,5R)-N-(3,4-dichlorophenyl)-5-hydroxy-3-(2-methylpyridin-4-yl)-7-oxabicyclo[2.2.1]heptane-2-carboxamide]	72	72
–	4.96	O=C(Nc1ccc(Cl)c(Cl)c1)[C@H]1[C@H](c2ccnc(C(F)(F)F)c2)[C@@H]2O[C@H]1C[C@H]2O (single isomer, unassigned) [Example 145b]	–	83
–	5.92	O=C(Nc1ccc(Cl)c(Cl)c1)[C@@H]1[C@@H](c2ccnc(C(F)(F)F)c2)[C@H]2O[C@@H]1C[C@@H]2O (single isomer, unassigned) [Example 145a]	–	100

The remaining lines, values behind:

Structure (SMILES)	pEC50 (NHACs)	pIC50 (C3H10T1/2 cell line)	Emax (NHACs) [%]	Emax (C3H10T1/2 cell line) [%]
Cc1cc([C@H]2[C@H]3O[C@H](C[C@H]3O)[C@@H]2C(=O)Nc2ccc(Cl)c(Cl)c2)ccn1 [Example 180, (1R,2R,3S,4R,5R)—N-(3,4-dichlorophenyl)-5-hydroxy-3-(2-methylpyridin-4-yl)-7-oxabicyclo[2.2.1]heptane-2-carboxamide]	4.52	4.96	113	69
Cc1cc([C@H]2[C@H]3O[C@H](C[C@@H]3F)[C@@H]2C(=O)Nc2ccc(Cl)c(Cl)c2)ccn1 [Example 105, (1R,2R,3S,4R,5S)—N-(3,4-dichlorophenyl)-5-fluoro-3-(2-methylpyridin-4-yl)-7-oxabicyclo[2.2.1]heptane-2-carboxamide]	5.09	5.77	106	68
Cc1ccc([C@H]2[C@H]3O[C@H](C[C@@H]3O)[C@@H]2C(=O)Nc2ccc(Cl)c(Cl)c2)cn1 [Example 138, (1R,2R,3S,4R,5S)—N-(3,4-dichlorophenyl)-5-hydroxy-3-(6-methylpyridin-3-yl)-7-oxabicyclo[2.2.1]heptane-2-carboxamide]	< 4.30	< 4.70	0	24
Cc1cc([C@H]2[C@H]3O[C@H]([C@@H]4C[C@@H]43)[C@@H]2C(=O)Nc2ccc(Cl)c(Cl)c2)ccn1 [Example 117, (1S,2S,4R,5R,6R,7S)—N-(3,4-dichlorophenyl)-7-(2-methylpyridin-4-yl)-8-oxatricyclo[3.2.1.0^2,4]octane-6-carboxamide]	5.52	5.15	177	59
Cc1cc([C@@H]2[C@@H]3O[C@@H](C[C@@H]3F)[C@H]2C(=O)Nc2ccc(Cl)c(Cl)c2)ccn1 (single isomer, unassigned) [Example 94]	4.74	< 4.70	157	0
O=C(Nc1cnc(Cl)c(Cl)c1)[C@H]1[C@@H]2O[C@@H]([C@H]3C[C@H]32)[C@@H]1c1cncnc1 [Example 75, (1S,2S,4R,5R,6R,7S)—N-(5,6-dichloropyridin-3-yl)-7-(pyrimidin-5-yl)-8-oxatricyclo[3.2.1.0^2,4]octane-6-carboxamide]	5.36	< 4.70	73	45
Cc1cc([C@@H]2[C@@H]3O[C@@H](C[C@@H]3O)[C@H]2C(=O)Nc2ccc(Cl)c(Cl)c2)ccn1 [Example 181, (1S,2S,3R,4S,5S)—N-(3,4-dichlorophenyl)-5-hydroxy-3-(2-methylpyridin-4-yl)-7-oxabicyclo[2.2.1]heptane-2-carboxamide]	4.57	< 4.70	243	28
Cc1cc([C@@H]2[C@@H]3O[C@@H](C[C@H]3O)[C@H]2C(=O)Nc2cnc(Cl)c(Cl)c2)ccn1 [Example 84, (1S,2S,3R,4S,5R)-N-(5,6-dichloropyridin-3-yl)-5-hydroxy-3-(2-methylpyridin-4-yl)-7-oxabicyclo[2.2.1]heptane-2-carboxamide]	< 4.30	< 4.70	61	31
Cn1cc([C@H]2[C@H]3O[C@H](C[C@@H]3O)[C@@H]2C(=O)Nc2ccc(Cl)c(Cl)c2)cn1 [Example 152, (1R,2R,3S,4R,5S)—N-(3,4-dichlorophenyl)-5-hydroxy-3-(1-methyl-1H-pyrazol-4-yl)-7-oxabicyclo[2.2.1]heptane-2-carboxamide]	4.92	5.70	44	61
Cc1ncc([C@H]2[C@H]3O[C@H](C[C@@H]3O)[C@@H]2C(=O)Nc2ccc(Cl)c(Cl)c2)cn1 [Example 148, (1R,2R,3S,4R,5S)—N-(3,4-dichlorophenyl)-5-hydroxy-3-(2-methylpyrimidin-5-yl)-7-oxabicyclo[2.2.1]heptane-2-carboxamide]	5.11	4.74	51	58
COc1ccc(NC(=O)[C@H]2[C@@H]3O[C@@H]([C@H]4C[C@H]43)[C@@H]2c2cccc(C(F)(F)F)n2)cn1 [Example 128, (1S,2S,4R,5R,6R,7S)—N-(6-methoxypyridin-3-yl)-7-(6-(trifluoromethyl)pyridin-2-yl)-8-oxatricyclo[3.2.1.0^2,4]octane-6-carboxamide]	< 4.30	< 4.70	27	39
O=C(Nc1ccc(Cl)c(Cl)c1)[C@@H]1[C@@H](c2cnc(C(F)(F)F)nc2)[C@H]2O[C@@H]1C[C@@H]2O [Example 154, (1R,2R,3S,4R,5S)—N-(3,4-dichlorophenyl)-5-hydroxy-3-(2-(trifluoromethyl)pyrimidin-5-yl)-7-oxabicyclo[2.2.1]heptane-2-carboxamide]	4.59	5.40	236	75
Cc1ccc([C@H]2[C@H]3O[C@H]([C@@H]4C[C@@H]43)[C@@H]2C(=O)Nc2cnc(Cl)c(Cl)c2)cn1 [Example 74, (1S,2S,4R,5R,6R,7S)—N-(5,6-dichloropyridin-3-yl)-7-(6-methylpyridin-3-yl)-8-oxatricyclo[3.2.1.0^2,4]octane-6-carboxamide]	5.11	< 4.70	90	83
Cc1cc([C@H]2[C@H]3O[C@H]([C@H](O)[C@@H]3O)[C@@H]2C(=O)Nc2cnc(Cl)c(Cl)c2)ccn1 [Example 162, (1S,2R,3S,4R,5S,6R)—N-(5,6-dichloropyridin-3-yl)-5,6-dihydroxy-3-(2-methylpyridin-4-yl)-7-oxabicyclo[2.2.1]heptane-2-carboxamide]	< 4.30	–	25	–
Cc1ncc([C@H]2[C@H]3O[C@H](C[C@@H]3O)[C@H]2C(=O)Nc2ccc(Cl)c(Cl)c2)cn1 [Example 56, (1R,2S,3S,4R,5S)—N-(3,4-dichlorophenyl)-5-hydroxy-3-(2-methylpyrimidin-5-yl)-7-oxabicyclo[2.2.1]heptane-2-carboxamide]	< 4.30	–	0	–
O=C(Nc1ccc(Cl)c(Cl)c1)[C@H]1[C@@H]2O[C@@H](C[C@H]2F)[C@@H]1c1ccnc(F)c1 [Example 112, (1S,2R,3S,4S,6R)—N-(3,4-dichlorophenyl)-6-fluoro-3-(2-fluoropyridin-4-yl)-7-oxabicyclo[2.2.1]heptane-2-carboxamide]	4.55	–	99	–
Cc1cc([C@H]2[C@H]3O[C@H](C[C@H]3F)[C@@H]2C(=O)Nc2ccc(Cl)c(Cl)c2)ccn1 (single isomer, unassigned) [Example 92]	< 4.30	–	57	–
Cc1cc([C@H]2[C@H]3O[C@H]([C@@H]4C[C@@H]43)[C@H]2C(=O)Nc2cccc(C(F)(F)F)c2)ccn1 [Example 26, (1S,2S,4R,5R,6S,7S)-7-(2-methylpyridin-4-yl)-N-[3-(trifluoromethyl)phenyl]-8-oxatricyclo[3.2.1.0^2,4]octane-6-carboxamide]	4.64	–	54	–
Cc1cc([C@H]2[C@H]3O[C@H]([C@@H]4C[C@@H]43)[C@@H]2C(=O)Nc2ccc(Cl)cc2C#N)ccn1 [Example 67, (1S,2S,4R,5R,6R,7S)—N-(4-chloro-2-cyanophenyl)-7-(2-methylpyridin-4-yl)-8-oxatricyclo[3.2.1.0^2,4]octane-6-carboxamide]	< 4.30	–	39	–

— patent publication US12209096B2, “Compounds and compositions for inducing chondrogenesis” (NOVARTIS AG, priority 2017, dated 2025)
